From patent US20110077294A1, “R-(-) / S-(+)-7-[3-N SUBSTITUTED AMINO-2 HYDROXYPROPOXY] FLAVONES” (priority 2006, published 2011)

What was measured:
Assay type in all cases: in vivo
C57BL/KsBom-db/db mice [1] = assay: Serum lipid profile of treated db/db mice (antidyslipidemic activity); conditions: 25 mg/kg
Description: (§1) C57BL/KsBom-db/db mice (12-18 weeks old), weighing around 35+g bred in the animal house of CDRI, Lucknow, were used in the present experiments. The mice were housed in groups of 3 to 5 (same sex) in a room controlled for temperature (23±2.0 ° C.) and 12/12 hours light/dark cycle (lights on at 6.00 am). Body weight of each animal was measured daily from day 1 to day 10 of the experiment. All animals had free access to fresh water and normal pellet diet except on the day of the postprandial protocol (day 6) and during the overnight fast before the OGTT on day 10. The animals always had access to water during experimental periods. Blood glucose was checked every morning up till day 10. On day 10 an oral glucose tolerance test (OGTT) was performed after an overnight fasting. Blood glucose was measured at −30.0 min and test compounds were administered. The blood glucose was again measured at 0 min just post treatment and at this juncture glucose solution was given at a dose of 3 gm/kg to all the groups including the vehicle treated group. The blood glucose levels were checked at 30 min, 60 min, 90 min and 120 min post glucose administration. The data was analyzed for its significance on Prism software.

C57BL/KsBom-db/db mice [2] = assay: Oral glucose tolerance test (OGTT) on day 10 in db/db mice; conditions: 25 mg/kg
Description: as §1

C57BL/KsBom-db/db mice [3] = assay: Blood glucose profile of db/db mice during daily treatment (antihyperglycemic activity)
Description: as §1

C57BL/KsBom-db/db mice [4] = assay: Serum lipid profile of treated db/db mice (antidyslipidemic activity); conditions: db/db mice, 25 mg/kg

CC(C)NC[C@H](O)COc1ccc2c(=O)cc(-c3cc(O)cc(O)c3)oc2c1 [S-002-857 (S), (S)-(+)-7-(2-Hydroxy-3-isopropylaminopropoxy)-3′,5′-dihydroxyflavone]
Serum lipid profile: Cholesterol (C57BL/KsBom-db/db mice [1]): 152 ± 7.00 mg/dL | Serum lipid profile: HDL-Chol (C57BL/KsBom-db/db mice [1]): 65.0 ± 6.03 mg/dL | Serum lipid profile: Triglycerides (C57BL/KsBom-db/db mice [1]): 124 ± 3.51 mg/dL | serum cholesterol, triglycerides (lipid profile) compared to sham treated (in words) (C57BL/KsBom-db/db mice [1]): not statistically significant | Cholesterol % change compared to control (C57BL/KsBom-db/db mice [1]; vs sham): −11.2% | HDL-Chol % change compared to control (C57BL/KsBom-db/db mice [1]; vs sham): +17.3% | Triglycerides % change compared to control (C57BL/KsBom-db/db mice [1]; vs sham): −6.54% | Blood glucose profile, 0 min post glucose load (C57BL/KsBom-db/db mice [2]; OGTT day 10, 0 min): 13.8 ± 2.18 mM | Blood glucose % change compared to control, 0 min post glucose load (C57BL/KsBom-db/db mice [2]; OGTT day 10, 0 min, vs sham): −21.1% | Blood glucose profile, 30 min post glucose load (C57BL/KsBom-db/db mice [2]; OGTT day 10, 30 min): 25.3 ± 0.58 mM | Blood glucose % change compared to control, 30 min post glucose load (C57BL/KsBom-db/db mice [2]; OGTT day 10, 30 min, vs sham): −23.7% | Blood glucose profile, 60 min post glucose load (C57BL/KsBom-db/db mice [2]; OGTT day 10, 60 min): 19.8 ± 1.20 mM | Blood glucose % change compared to control, 60 min post glucose load (C57BL/KsBom-db/db mice [2]; OGTT day 10, 60 min, vs sham): −26.9% | Blood glucose profile, 90 min post glucose load (C57BL/KsBom-db/db mice [2]; OGTT day 10, 90 min): 15.2 ± 0.48 mM | Blood glucose % change compared to control, 90 min post glucose load (C57BL/KsBom-db/db mice [2]; OGTT day 10, 90 min, vs sham): −31.5% | Blood glucose profile, 120 min post glucose load (C57BL/KsBom-db/db mice [2]; OGTT day 10, 120 min): 11.6 ± 0.58 mM | Blood glucose % change compared to control, 120 min post glucose load (C57BL/KsBom-db/db mice [2]; OGTT day 10, 120 min, vs sham): −37.6% | Blood glucose profile, −30 min post glucose load (C57BL/KsBom-db/db mice [2]; OGTT day 10, −30 min): 8.76 ± 1.90 mM | Blood glucose % change compared to control, −30 min post glucose load (C57BL/KsBom-db/db mice [2]; OGTT day 10, −30 min, vs sham): −32.2% | effect of 10 days treatment on glucose tolerance (overall improvement in OGTT) (C57BL/KsBom-db/db mice [2]; vs sham): 27% | average blood glucose lowering (C57BL/KsBom-db/db mice [3]; 25.0 mg/kg): around 20% | Blood glucose, day 1 post treatment (C57BL/KsBom-db/db mice [3]; 25 mg/kg, day 1): 12.7 ± 2.61 mM | Blood glucose % change compared to control, day 1 (C57BL/KsBom-db/db mice [3]; 25 mg/kg, day 1, vs sham): −1.60% | Blood glucose, day 2 post treatment (C57BL/KsBom-db/db mice [3]; 25 mg/kg, day 2): 12.3 ± 2.40 mM | Blood glucose % change compared to control, day 2 (C57BL/KsBom-db/db mice [3]; 25 mg/kg, day 2, vs sham): −0.80% | Blood glucose, day 3 post treatment (C57BL/KsBom-db/db mice [3]; 25 mg/kg, day 3): 11.5 ± 1.80 mM | Blood glucose % change compared to control, day 3 (C57BL/KsBom-db/db mice [3]; 25 mg/kg, day 3, vs sham): −8.13% | Blood glucose, day 4 post treatment (C57BL/KsBom-db/db mice [3]; 25 mg/kg, day 4): 11.3 ± 2.54 mM | Blood glucose % change compared to control, day 4 (C57BL/KsBom-db/db mice [3]; 25 mg/kg, day 4, vs sham): −12.7% | Blood glucose, day 5 post treatment (C57BL/KsBom-db/db mice [3]; 25 mg/kg, day 5): 10.1 ± 2.08 mM | Blood glucose % change compared to control, day 5 (C57BL/KsBom-db/db mice [3]; 25 mg/kg, day 5, vs sham): −25.3% | Blood glucose, day 6 post treatment (C57BL/KsBom-db/db mice [3]; 25 mg/kg, day 6): 9.19 ± 2.25 mM | Blood glucose % change compared to control, day 6 (C57BL/KsBom-db/db mice [3]; 25 mg/kg, day 6, vs sham): −29.1% | Blood glucose, day 7 post treatment (C57BL/KsBom-db/db mice [3]; 25 mg/kg, day 7): 9.41 ± 1.37 mM | lowering in blood glucose, day 7 (C57BL/KsBom-db/db mice [3]; 25.0 mg/kg, day 7, statistically significant): around 37.4% | Blood glucose % change compared to control, day 7 (C57BL/KsBom-db/db mice [3]; 25 mg/kg, day 7, vs sham): −37.4% | Blood glucose, day 8 post treatment (C57BL/KsBom-db/db mice [3]; 25 mg/kg, day 8): 9.28 ± 1.02 mM | lowering in blood glucose, day 8 (C57BL/KsBom-db/db mice [3]; 25.0 mg/kg, day 8, statistically significant): ~36.8% | Blood glucose % change compared to control, day 8 (C57BL/KsBom-db/db mice [3]; 25 mg/kg, day 8, vs sham): −36.8% | Blood glucose, day 9 post treatment (C57BL/KsBom-db/db mice [3]; 25 mg/kg, day 9): 7.56 ± 2.13 mM | lowering in blood glucose, day 9 (C57BL/KsBom-db/db mice [3]; 25.0 mg/kg, day 9, statistically significant): ~43.3% | Blood glucose % change compared to control, day 9 (C57BL/KsBom-db/db mice [3]; 25 mg/kg, day 9, vs sham): −43.3% | elevation in HDL-cholesterol level than control (C57BL/KsBom-db/db mice [4]): 17.3%
